Active and inactive are the calls of the source. The rule behind the calls is not given here.
System: CCRIS mutagenicity, Ames/micronucleus/aberration tests
Test: CCRIS mutagenicity studies
[1] = Test System: AMES SALMONELLA TYPHIMURIUM, Strain/Indicator: TA98, Metabolic Activation: NONE, Method: PREINCUBATION
[2] = Test System: AMES SALMONELLA TYPHIMURIUM, Strain/Indicator: TA100, Metabolic Activation: NONE, Method: PREINCUBATION
[3] = Test System: AMES SALMONELLA TYPHIMURIUM, Strain/Indicator: TA1535, Metabolic Activation: NONE, Method: PREINCUBATION
[4] = Test System: AMES SALMONELLA TYPHIMURIUM, Strain/Indicator: TA1537, Metabolic Activation: NONE, Method: PREINCUBATION

O=[N+]([O-])c1ccc(Nc2ncnc3c2ncn3-c2ccc([N+](=O)[O-])cc2)cc1
mutagenic call (Test System: AMES SALMONELLA TYPHIMURIUM, Strain/Indicator: TA98(1,8-DNP), Metabolic Activation: NONE, Method: PREINCUBATION): inactive; negative
mutagenic call (Test System: AMES SALMONELLA TYPHIMURIUM, Strain/Indicator: TA98(1,8-DNP), Metabolic Activation: RAT, LIVER, S-9, PCB, Method: PREINCUBATION): inactive; negative
mutagenic call (Test System: AMES SALMONELLA TYPHIMURIUM, Strain/Indicator: TA98(NR), Metabolic Activation: NONE, Method: PREINCUBATION): inactive; negative
mutagenic call (Test System: AMES SALMONELLA TYPHIMURIUM, Strain/Indicator: TA98(NR), Metabolic Activation: RAT, LIVER, S-9, PCB, Method: PREINCUBATION): inactive; negative
mutagenic call [1]: inactive; negative
mutagenic call (Test System: AMES SALMONELLA TYPHIMURIUM, Strain/Indicator: TA98, Metabolic Activation: RAT, LIVER, S-9, PCB, Method: PREINCUBATION): inactive; negative
mutagenic call (Test System: AMES SALMONELLA TYPHIMURIUM, Strain/Indicator: TA100(1,8-DNP), Metabolic Activation: NONE, Method: PREINCUBATION): inactive; negative
mutagenic call (Test System: AMES SALMONELLA TYPHIMURIUM, Strain/Indicator: TA100(1,8-DNP), Metabolic Activation: RAT, LIVER, S-9, PCB, Method: PREINCUBATION): inactive; negative
mutagenic call (Test System: AMES SALMONELLA TYPHIMURIUM, Strain/Indicator: TA100(NR), Metabolic Activation: NONE, Method: PREINCUBATION): inactive; negative
mutagenic call (Test System: AMES SALMONELLA TYPHIMURIUM, Strain/Indicator: TA100(NR), Metabolic Activation: RAT, LIVER, S-9, PCB, Method: PREINCUBATION): inactive; negative
mutagenic call [2]: inactive; negative
mutagenic call (Test System: AMES SALMONELLA TYPHIMURIUM, Strain/Indicator: TA100, Metabolic Activation: RAT, LIVER, S-9, PCB, Method: PREINCUBATION): inactive; negative
mutagenic call (Test System: AMES SALMONELLA TYPHIMURIUM, Strain/Indicator: YG1020, Metabolic Activation: NONE, Method: PREINCUBATION): inactive; negative
mutagenic call (Test System: AMES SALMONELLA TYPHIMURIUM, Strain/Indicator: YG1020, Metabolic Activation: RAT, LIVER, S-9, PCB, Method: PREINCUBATION): inactive; negative
mutagenic call (Test System: AMES SALMONELLA TYPHIMURIUM, Strain/Indicator: YG1021, Metabolic Activation: RAT, LIVER, S-9, PCB, Method: PREINCUBATION): active; positive
mutagenic call (Test System: AMES SALMONELLA TYPHIMURIUM, Strain/Indicator: YG1024, Metabolic Activation: RAT, LIVER, S-9, PCB, Method: PREINCUBATION): inactive; negative
mutagenic call (Test System: AMES SALMONELLA TYPHIMURIUM, Strain/Indicator: YG1025, Metabolic Activation: NONE, Method: PREINCUBATION): inactive; negative
mutagenic call (Test System: AMES SALMONELLA TYPHIMURIUM, Strain/Indicator: YG1025, Metabolic Activation: RAT, LIVER, S-9, PCB, Method: PREINCUBATION): inactive; negative
mutagenic call (Test System: AMES SALMONELLA TYPHIMURIUM, Strain/Indicator: YG1026, Metabolic Activation: NONE, Method: PREINCUBATION): inactive; negative
mutagenic call (Test System: AMES SALMONELLA TYPHIMURIUM, Strain/Indicator: YG1026, Metabolic Activation: RAT, LIVER, S-9, PCB, Method: PREINCUBATION): inactive; negative
mutagenic call (Test System: AMES SALMONELLA TYPHIMURIUM, Strain/Indicator: YG1029, Metabolic Activation: NONE, Method: PREINCUBATION): inactive; negative
mutagenic call (Test System: AMES SALMONELLA TYPHIMURIUM, Strain/Indicator: YG1029, Metabolic Activation: RAT, LIVER, S-9, PCB, Method: PREINCUBATION): inactive; negative

O[C@H]1C=Cc2c(cc3c4c(cc5ccccc53)-c3ccccc3-c24)[C@@H]1O
mutagenic call (Test System: AMES SALMONELLA TYPHIMURIUM, Strain/Indicator: TA100, Metabolic Activation: MOUSE, LIVER, S-9, 3-METHYLCHOLANTHRENE, Method: STANDARD PLATE): active; positive
mutagenic call (Test System: AMES SALMONELLA TYPHIMURIUM, Strain/Indicator: TA100, Metabolic Activation: RAT, LIVER, S-9, 3-METHYLCHOLANTHRENE, Method: STANDARD PLATE): active; positive

CCOc1ccc2ccccc2c1
mutagenic call [1]: inactive; negative
mutagenic call (Test System: AMES SALMONELLA TYPHIMURIUM, Strain/Indicator: TA98, Metabolic Activation: RAT LIVER S-9, PHENOBARBITAL AND BETA-NAPHTHOFLAVONE, Method: PREINCUBATION): inactive; negative
mutagenic call [2]: inactive; negative
mutagenic call (Test System: AMES SALMONELLA TYPHIMURIUM, Strain/Indicator: TA100, Metabolic Activation: RAT LIVER S-9, PHENOBARBITAL AND BETA-NAPHTHOFLAVONE, Method: PREINCUBATION): inactive; negative
mutagenic call [3]: inactive; negative
mutagenic call (Test System: AMES SALMONELLA TYPHIMURIUM, Strain/Indicator: TA1535, Metabolic Activation: RAT LIVER S-9, PHENOBARBITAL AND BETA-NAPHTHOFLAVONE, Method: PREINCUBATION): inactive; negative
mutagenic call [4]: inactive; negative
mutagenic call (Test System: AMES SALMONELLA TYPHIMURIUM, Strain/Indicator: TA1537, Metabolic Activation: RAT LIVER S-9, PHENOBARBITAL AND BETA-NAPHTHOFLAVONE, Method: PREINCUBATION): inactive; negative
mutagenic call (Test System: E.COLI, Strain/Indicator: WP2UVRA/PKM101, Metabolic Activation: NONE, Method: PREINCUBATION): inactive; negative
mutagenic call (Test System: E.COLI, Strain/Indicator: WP2UVRA/PKM101, Metabolic Activation: RAT LIVER S-9, PHENOBARBITAL AND BETA-NAPHTHOFLAVONE, Method: PREINCUBATION): inactive; negative

CC(N)CN (stereo not drawn)
mutagenic call (Test System: AMES SALMONELLA TYPHIMURIUM, Strain/Indicator: TA98, Metabolic Activation: HAMSTER, LIVER, S-9, AROCLOR 1254 (10%), Method: PREINCUBATION): inactive; negative
mutagenic call [1]: inactive; negative
mutagenic call (Test System: AMES SALMONELLA TYPHIMURIUM, Strain/Indicator: TA98, Metabolic Activation: RAT, LIVER, S-9, AROCLOR 1254 (10%), Method: PREINCUBATION): inactive; negative
mutagenic call (Test System: AMES SALMONELLA TYPHIMURIUM, Strain/Indicator: TA100, Metabolic Activation: HAMSTER, LIVER, S-9, AROCLOR 1254 (10%), Method: PREINCUBATION): inactive; negative
mutagenic call [2]: inactive; negative
mutagenic call (Test System: AMES SALMONELLA TYPHIMURIUM, Strain/Indicator: TA100, Metabolic Activation: RAT, LIVER, S-9, AROCLOR 1254 (10%), Method: PREINCUBATION): inactive; negative
mutagenic call (Test System: AMES SALMONELLA TYPHIMURIUM, Strain/Indicator: TA1535, Metabolic Activation: HAMSTER, LIVER, S-9, AROCLOR 1254 (10%), Method: PREINCUBATION): inactive; negative
mutagenic call [3]: inactive; negative
mutagenic call (Test System: AMES SALMONELLA TYPHIMURIUM, Strain/Indicator: TA1535, Metabolic Activation: RAT, LIVER, S-9, AROCLOR 1254 (10%), Method: PREINCUBATION): inactive; negative
mutagenic call (Test System: AMES SALMONELLA TYPHIMURIUM, Strain/Indicator: TA1537, Metabolic Activation: HAMSTER, LIVER, S-9, AROCLOR 1254 (10%), Method: PREINCUBATION): inactive; negative
mutagenic call [4]: inactive; negative
mutagenic call (Test System: AMES SALMONELLA TYPHIMURIUM, Strain/Indicator: TA1537, Metabolic Activation: RAT, LIVER, S-9, AROCLOR 1254 (10%), Method: PREINCUBATION): inactive; negative

Clc1cc(Cl)c(Cl)c(Cl)c1Cl
mutagenic call (Test System: AMES SALMONELLA TYPHIMURIUM, Strain/Indicator: TA98, Metabolic Activation: HAMSTER, LIVER, S-9, AROCLOR 1254, Method: PREINCUBATION): inactive; negative
mutagenic call [1]: inactive; negative
mutagenic call (Test System: AMES SALMONELLA TYPHIMURIUM, Strain/Indicator: TA98, Metabolic Activation: RAT, LIVER, S-9, AROCLOR 1254, Method: PREINCUBATION): inactive; negative
mutagenic call (Test System: AMES SALMONELLA TYPHIMURIUM, Strain/Indicator: TA100, Metabolic Activation: HAMSTER, LIVER, S-9, AROCLOR 1254, Method: PREINCUBATION): inactive; negative
mutagenic call [2]: inactive; negative
mutagenic call (Test System: AMES SALMONELLA TYPHIMURIUM, Strain/Indicator: TA100, Metabolic Activation: RAT, LIVER, S-9, AROCLOR 1254, Method: PREINCUBATION): inactive; negative
mutagenic call (Test System: AMES SALMONELLA TYPHIMURIUM, Strain/Indicator: TA1535, Metabolic Activation: HAMSTER, LIVER, S-9, AROCLOR 1254, Method: PREINCUBATION): inactive; negative
mutagenic call [3]: inactive; negative
mutagenic call (Test System: AMES SALMONELLA TYPHIMURIUM, Strain/Indicator: TA1535, Metabolic Activation: RAT, LIVER, S-9, AROCLOR 1254, Method: PREINCUBATION): inactive; negative
mutagenic call (Test System: AMES SALMONELLA TYPHIMURIUM, Strain/Indicator: TA1537, Metabolic Activation: HAMSTER, LIVER, S-9, AROCLOR 1254, Method: PREINCUBATION): inactive; negative
mutagenic call [4]: inactive; negative
mutagenic call (Test System: AMES SALMONELLA TYPHIMURIUM, Strain/Indicator: TA1537, Metabolic Activation: RAT, LIVER, S-9, AROCLOR 1254, Method: PREINCUBATION): inactive; negative

Reference: PubChem BioAssay AID1259407 (Chemical Carcinogenesis Research Information System (CCRIS), 2018)
